# Source: publication PMC10177510, “A Multicenter, Open-Label, Phase I/II Study of FN-1501 in Patients with Advanced Solid Tumors” (Cancers, 2023)
# Test system: advanced solid tumors
# Assay: Anti-tumor activity in patients (RECIST best response, PFS, OS)
# Format: in vivo, human
# Experimental: Among 64 pts enrolled in the trial, 16 failed screening and 48 (75%) were treated with FN-1501 at one of the dose levels tested. Eligible pts were ≥18 years of age with (a) relapsed or refractory AML that had exhausted or was ineligible for therapeutic options, or with ≥5% blasts in the bone marrow according to World Health Organization (WHO) 2016 criteria; or (b) solid tumors evaluable per RECIST v1.1 that had exhausted (or were ineligible for) therapeutic options likely to convey clinical benefit. Other inclusion criteria included Eastern Cooperative Oncology Group (ECOG) performance status (PS) of <2 and life expectancy ≥3 months. Pts with a clinically controlled central nervous system (CNS) tumor or metastasis and adequate organ function were eligible to participate. Ongoing use of strong CYP3A inhibitors or inducers was exclusionary unless participants were willing and able to change to use of an equivalent medication without this profile. Other exclusion criteria included current or recent major surgical procedures, anticancer therapy (chemotherapy, immunotherapy), biologic, live virus vaccine, or investigational therapy within 21 days prior to initiation of the study treatment. For patients in the AML cohort, acute promyelocytic leukemia (APML), chronic myelogenous leukemia in blast crisis (BCR-ABL), or active CNS leukemia were exclusionary.
# Descriptive statistics were used for all safety, PK, and efficacy parameters. Data were summarized using descriptive statistics (number of pts, mean, median, standard deviation, minimum, and maximum) for continuous variables and using frequencies and percentages for discrete variables. Time-to-event variables were summarized using Kaplan–Meier methods and figures for the estimated median time.
smiles,measurement,setting,value
CN1CCN(Cc2ccc(NC(=O)c3[nH]ncc3Nc3ncnc4[nH]ccc34)cc2)CC1 [FN-1501],"Complete Response, best RECIST response, n (%)","2.5 mg/day, N = 4, ITT",0
same,DCR,"2.5 mg/day, N = 4, ITT",0.0%
same,"Landmark Progression Free Survival Rate at 3 months (Table S6, Overall Survival)","2.5 mg/day, N = 4, ITT",37.5%
same,"Landmark Progression Free Survival Rate at 6 months (Table S6, Overall Survival)","2.5 mg/day, N = 4, ITT",37.5%
same,"Landmark Progression Free Survival Rate at 9 months (Table S6, Overall Survival)","2.5 mg/day, N = 4, ITT",37.5%
same,"Landmark Progression Free Survival Rate at 12 months (Table S6, Overall Survival)","2.5 mg/day, N = 4, ITT",37.5%
same,Median overall survival,"2.5 mg/day, N = 4, ITT",2.0 months
same,Median progression-free survival,"2.5 mg/day, N = 4, ITT",1.8 months
same,ORR,"2.5 mg/day, N = 4, ITT",0.0%
same,"Partial Response, best RECIST response, n (%)","2.5 mg/day, N = 4, ITT",0
same,Progression Free Survival Rate at 3 months,"2.5 mg/day, N = 4, ITT",0.0%
same,Progression Free Survival Rate at 6 months,"2.5 mg/day, N = 4, ITT",0.0%
same,Progression Free Survival Rate at 9 months,"2.5 mg/day, N = 4, ITT",0.0%
same,Progression Free Survival Rate at 12 months,"2.5 mg/day, N = 4, ITT",0.0%
same,"Progressive Disease, best RECIST response, n (%)","2.5 mg/day, N = 4, ITT",3
same,"Stable Disease, best RECIST response, n (%)","2.5 mg/day, N = 4, ITT",0
same,"Complete Response, best RECIST response, n (%)","5 mg/day, N = 3, ITT",0
same,DCR,"5 mg/day, N = 3, ITT",0.0%
same,"Landmark Progression Free Survival Rate at 3 months (Table S6, Overall Survival)","5 mg/day, N = 3, ITT",50.0%
same,"Landmark Progression Free Survival Rate at 6 months (Table S6, Overall Survival)","5 mg/day, N = 3, ITT",0.0%
same,"Landmark Progression Free Survival Rate at 9 months (Table S6, Overall Survival)","5 mg/day, N = 3, ITT",0.0%
same,"Landmark Progression Free Survival Rate at 12 months (Table S6, Overall Survival)","5 mg/day, N = 3, ITT",0.0%
same,Median overall survival,"5 mg/day, N = 3, ITT",2.6 months
same,Median progression-free survival,"5 mg/day, N = 3, ITT",1.7 months
same,ORR,"5 mg/day, N = 3, ITT",0.0%
same,"Partial Response, best RECIST response, n (%)","5 mg/day, N = 3, ITT",0
same,Progression Free Survival Rate at 3 months,"5 mg/day, N = 3, ITT",0.0%
same,Progression Free Survival Rate at 6 months,"5 mg/day, N = 3, ITT",0.0%
same,Progression Free Survival Rate at 9 months,"5 mg/day, N = 3, ITT",0.0%
same,Progression Free Survival Rate at 12 months,"5 mg/day, N = 3, ITT",0.0%
same,"Progressive Disease, best RECIST response, n (%)","5 mg/day, N = 3, ITT",2
same,"Stable Disease, best RECIST response, n (%)","5 mg/day, N = 3, ITT",0
same,"Complete Response, best RECIST response, n (%)","10 mg/day, N = 5, ITT",0
same,DCR,"10 mg/day, N = 5, ITT",20.0%
same,"Landmark Progression Free Survival Rate at 3 months (Table S6, Overall Survival)","10 mg/day, N = 5, ITT",60.0%
same,"Landmark Progression Free Survival Rate at 6 months (Table S6, Overall Survival)","10 mg/day, N = 5, ITT",60.0%
same,"Landmark Progression Free Survival Rate at 9 months (Table S6, Overall Survival)","10 mg/day, N = 5, ITT",60.0%
same,"Landmark Progression Free Survival Rate at 12 months (Table S6, Overall Survival)","10 mg/day, N = 5, ITT",60.0%
same,Median progression-free survival,"10 mg/day, N = 5, ITT",1.4 months
same,ORR,"10 mg/day, N = 5, ITT",0.0%
same,"Partial Response, best RECIST response, n (%)","10 mg/day, N = 5, ITT",0
same,Progression Free Survival Rate at 3 months,"10 mg/day, N = 5, ITT",20.0%
same,Progression Free Survival Rate at 6 months,"10 mg/day, N = 5, ITT",0.0%
same,Progression Free Survival Rate at 9 months,"10 mg/day, N = 5, ITT",0.0%
same,Progression Free Survival Rate at 12 months,"10 mg/day, N = 5, ITT",0.0%
same,"Progressive Disease, best RECIST response, n (%)","10 mg/day, N = 5, ITT",2
same,"Stable Disease, best RECIST response, n (%)","10 mg/day, N = 5, ITT",1 (20)
same,"Complete Response, best RECIST response, n (%)","15 mg/day, N = 3, ITT",0
same,DCR,"15 mg/day, N = 3, ITT",100.0%
same,Median progression-free survival,"15 mg/day, N = 3, ITT",4.1 months
same,ORR,"15 mg/day, N = 3, ITT",0.0%
same,"Partial Response, best RECIST response, n (%)","15 mg/day, N = 3, ITT",0
same,Progression Free Survival Rate at 6 months,"15 mg/day, N = 3, ITT",33.3%
same,Progression Free Survival Rate at 9 months,"15 mg/day, N = 3, ITT",0.0%
same,Progression Free Survival Rate at 12 months,"15 mg/day, N = 3, ITT",0.0%
same,"Progressive Disease, best RECIST response, n (%)","15 mg/day, N = 3, ITT",0
same,"Stable Disease, best RECIST response, n (%)","15 mg/day, N = 3, ITT",3 (100)
same,"Complete Response, best RECIST response, n (%)","22.5 mg/day, N = 4, ITT",0
same,DCR,"22.5 mg/day, N = 4, ITT",50.0%
same,"Landmark Progression Free Survival Rate at 3 months (Table S6, Overall Survival)","22.5 mg/day, N = 4, ITT",50.0%
same,"Landmark Progression Free Survival Rate at 6 months (Table S6, Overall Survival)","22.5 mg/day, N = 4, ITT",50.0%
same,"Landmark Progression Free Survival Rate at 9 months (Table S6, Overall Survival)","22.5 mg/day, N = 4, ITT",25.0%
same,"Landmark Progression Free Survival Rate at 12 months (Table S6, Overall Survival)","22.5 mg/day, N = 4, ITT",25.0%
same,Median overall survival,"22.5 mg/day, N = 4, ITT",5.4 months
same,Median progression-free survival,"22.5 mg/day, N = 4, ITT",5.0 months
same,ORR,"22.5 mg/day, N = 4, ITT",0.0%
same,"Partial Response, best RECIST response, n (%)","22.5 mg/day, N = 4, ITT",0
same,Progression Free Survival Rate at 3 months,"22.5 mg/day, N = 4, ITT",50.0%
same,Progression Free Survival Rate at 6 months,"22.5 mg/day, N = 4, ITT",50.0%
same,Progression Free Survival Rate at 9 months,"22.5 mg/day, N = 4, ITT",25.0%
same,Progression Free Survival Rate at 12 months,"22.5 mg/day, N = 4, ITT",25.0%
same,"Progressive Disease, best RECIST response, n (%)","22.5 mg/day, N = 4, ITT",2 (50)
same,"Stable Disease, best RECIST response, n (%)","22.5 mg/day, N = 4, ITT",2 (50)
same,"Complete Response, best RECIST response, n (%)","30 mg/day, N = 3, ITT",0
same,DCR,"30 mg/day, N = 3, ITT",100.0%
same,Median progression-free survival,"30 mg/day, N = 3, ITT",3.4 months
same,ORR,"30 mg/day, N = 3, ITT",0.0%
same,"Partial Response, best RECIST response, n (%)","30 mg/day, N = 3, ITT",0
same,Progression Free Survival Rate at 3 months,"30 mg/day, N = 3, ITT",50.0%
same,Progression Free Survival Rate at 6 months,"30 mg/day, N = 3, ITT",0.0%
same,Progression Free Survival Rate at 9 months,"30 mg/day, N = 3, ITT",0.0%
same,Progression Free Survival Rate at 12 months,"30 mg/day, N = 3, ITT",0.0%
same,"Progressive Disease, best RECIST response, n (%)","30 mg/day, N = 3, ITT",0
same,"Stable Disease, best RECIST response, n (%)","30 mg/day, N = 3, ITT",3 (100)
same,Patients with best response of partial response (PR) by RECIST,"40 mg/day cohort, efficacy evaluable population",25%
same,"Complete Response, best RECIST response, n (%)","40 mg/day, N = 4, ITT",0
same,DCR,"40 mg/day, N = 4, ITT",50.0%
same,"Landmark Progression Free Survival Rate at 3 months (Table S6, Overall Survival)","40 mg/day, N = 4, ITT",75.0%
same,"Landmark Progression Free Survival Rate at 6 months (Table S6, Overall Survival)","40 mg/day, N = 4, ITT",75.0%
same,"Landmark Progression Free Survival Rate at 9 months (Table S6, Overall Survival)","40 mg/day, N = 4, ITT",75.0%
same,"Landmark Progression Free Survival Rate at 12 months (Table S6, Overall Survival)","40 mg/day, N = 4, ITT",75.0%
same,Median progression-free survival,"40 mg/day, N = 4, ITT",2.6 months
same,ORR,"40 mg/day, N = 4, ITT",25.0%
same,"Partial Response, best RECIST response, n (%)","40 mg/day, N = 4, ITT",1
same,Progression Free Survival Rate at 3 months,"40 mg/day, N = 4, ITT",33.3%
same,Progression Free Survival Rate at 6 months,"40 mg/day, N = 4, ITT",0.0%
same,Progression Free Survival Rate at 9 months,"40 mg/day, N = 4, ITT",0.0%
same,Progression Free Survival Rate at 12 months,"40 mg/day, N = 4, ITT",0.0%
